Earlier results as cited in patent US20060147391A1, “Composition for enhancing oral health” (priority 2002, published 2006).

Test system: oral microorganisms (intraoral bacteria such as Streptococcus mutans, Streptococcus sobrinus and Porphyromonas gingivalis)
Settings: reported result in vitro (Korean publications, WO 00/67711)

Structure (SMILES): CC(C)=CCC[C@@H](C)c1ccc(C)c(O)c1 [Xanthorrhizol]
- antibacterial activity against oral microorganisms: excellent antibacterial activity
